Test results: PMC4137327 (Journal of neurochemistry, 2014)
Entries after “also recorded” stand apart in the source; their conditions may differ. Where two headings read alike, the source gives them in different places. Ends that are not written are not given here.

How the values were obtained:
[1] = target: T1, Ang-(1–7) peptidase purified from sheep brain medulla (Ovis aries, UniProt A0ACI6RWG7)
[2] = target: T1, Ang-(1–7) peptidase purified from sheep brain medulla; assay: Inhibitor profile of 125I-Ang-; assay type: biochemical; settings: cocktail; for effect of inhibitor on peptidase activity (in words): enriched medullary peptidase, 60 min, 37°C
ACE = settings: read-out: reported IC50; ref Doulut et al. 1993; cited from earlier work
[3] = target: Ang-(1–7) peptidase activity in CSF (Ovis aries, UniProt A0ACI6RWG7); assay: Inhibitor profile of 125I-Ang-; assay type: biochemical, sheep; settings: CSF 25 µl, cocktail, 60 min, 37°C

Molecule: DRVYIHPFHL [Ang I]
- hydrolysis of unlabeled peptide by the peptidase ([1]; sheep, purified brain medulla peptidase, 24 h, 400 µM): < 5%

Molecule: O=S(=O)(F)Cc1ccccc1 [PMSF, phenylmethylsulfonyl fluoride]
- effect of inhibitor on peptidase activity (in words) ([2]; inhibitor 100 µM, N=3): insensitive; also recorded: did not inhibit activity

Molecule: O[C@@H](CS)[C@@H](O)CS (racemic) [DTT, dithiothreitol]
- effect of inhibitor on peptidase activity (in words) ([2]; inhibitor 5 mM, N=3): partial inhibition

Molecule: CC(C)C[C@H](NC(=O)[C@@H](CC(=O)NO)Cc1ccccc1)C(=O)O [JMV-390, N-[3-[(hydroxyamino)carbonyl]-1-oxo-2(R)-benzylpropyl]-L-leucine]
- effect on the Ang-(1–4) peak (in words) ([2]; 1 nM JMV-390, purified enzyme): reduced the Ang-(1–4) peak
- effect on peptidase activity (in words) ([2]; 100 nM JMV-390, purified enzyme): essentially abolished activity
- IC50 (ACE): 70 µM
- effect on the peak of Ang-(1–4) from unlabeled Ang-(1–7) (in words) ([1]; 10 µM JMV-390, Ang-(1–7) 400 µM, 24 hours, 37°C (Figure 6B)): abolished

Molecule: c1cnc2c(c1)ccc1cccnc12 [o-phenanthroline]
- effect of inhibitor on peptidase activity (in words) ([2]; inhibitor 1 mM, N=3): abolished peptidase activity; also recorded: sensitive

Molecule: CC[C@H](C)[C@H](NC(=O)[C@H](Cc1ccc(O)cc1)NC(=O)[C@@H](NC(=O)[C@H](CCCNC(=N)N)NC(=O)[C@@H](N)CC(=O)O)C(C)C)C(=O)N[C@@H](Cc1cnc[nH]1)C(=O)N1CCC[C@H]1C(=O)N[C@@H](Cc1ccccc1)C(=O)O [Ang II]
- hydrolysis of unlabeled peptide by the peptidase ([1]; HPLC analysis, unlabeled peptide 0.4 mM, 24 hours, 37°C): < 5%

Molecule: aprotinin
- effect of inhibitor on peptidase activity (in words) ([2]; inhibitor 80 µM): insensitive
- Inhibitor Sensitivity (% of control) ([3]; inhibitor 80 µM): 100 % of control

B1: soybean trypsin inhibitor (protein, UniProt P01070 25-205, looked up)
Trypsin inhibitor A: DFVLDNEGNPLENGGTYYILSDITAFGGIRAAPTGNERCPLTVVQSRNELDKGIGTIISSPYRIRFIAEGHPLSLKFDSFAVIMLCVGIPTEWSVVEDLPEGPAVKIGENKDAMDGWFRLERVSDDEFNNYKLVFCPQQAEDDKCGDIGISIDHDDGTRRLVVSKNKPLVVQFQKLDKESL
- effect of inhibitor on peptidase activity (in words) ([2]; inhibitor 100 µM, N=3): insensitive
- Inhibitor Sensitivity (% of control) ([3]; inhibitor 100 µM, mean ± SEM): 101 ± 2 % of control
